Measurements from patent US10596185B2, “Flavonoid compositions and uses thereof” (INGREDIENTS BY NATURE, priority 2014, dated 2020).
Values after ≈ are worked out from the molar mass of the structure shown. Read-outs that look alike come from different tables or passages of the source. Marks after values point to notes of the source that are not given here.

Tests used:
[1] = Total ORACFN (sum over the five reactive species); type: biochemical; set-up: ORAC-FN: unit not given here; conditions: for ORAC-FN: Table 5 summary, total ORACFN, unit not given; for Compare quercetin (ORAC-FN): anti-oxidant activity relative to quercetin
Method: This example describes the anti-oxidant activity of the eriodictyol complex described in Table 1. Anti-oxidant activity was measured using an oxygen radical absorbance capacity assay for food and nutrition ([…]). The assay was performed using techniques known in the art, such as those disclosed in Ou, B. et al., J Agric and Food Chem, 2001, 49 (10): 4619-4626; Huang, D. et al., J Agric and Food Chem, 2002, 50 (7): 1815-1821; Ou, B. et al., J Agric and Food Chem, 2002, 50 (10): 2772-2777; Zhang, L. et al., Free Radic. Bio Med, 2007, 43 (suppl. 1): S17; Dubost, N.J. et al., Food Chem, 2007, 105 (2): 727-735; Zhang, L. et al., J Agric and Food Chem, 2009, 57(7): 2661-2667; and U.S. Pat. No. 7,132,296, the contents of all of which are incorporated herein by reference. The activity of the eriodictyol complex against peroxyl radicals, hydroxyl radicals, peroxynitrite, super oxide anion, and singlet oxygen was measured. The total […] was also measured.

[2] = Clinical study of metabolic syndrome symptoms (fasting glucose, insulin, hs-CRP, lipid panel); type: in vivo; conditions: humans, after 30 days, ≥10 hour fast, versus placebo
Method: A clinical study is performed in which subjects undergo a one-week run-in period during which subject document baseline data. Subjects meeting the inclusion/exclusion criteria are enrolled in the study and sent a glucometer to determine their fasting blood glucose levels. Those meeting the study criteria are enrolled in the study.
The subjects fast for at least 10 hours, and their fasting glucose, fasting insulin, hs-CRP levels, and lipid panels (including LDL, HDL, and triglycerides) are measured. Following these baseline measurements, subjects consume (1) 50 mg-2 g/day eriocitrin; (2) 50 mg-2 g/day eriocitrin, 50-250 mg/day neoeriocitrin, 50-250 mg/day hesperidin; or (3) a placebo. After 30 days, the subjects' glucose, insulin, hs-CRP, and lipid panel measurements are taken after a ≥10 hour fast.

MCP-1 = MCP-1 level in mice fed a high-fat diet; type: in vivo; conditions: for MCP-1: high fat diet mice, mean ± standard deviation
Method: (§1) The effects of eriocitrin and eriodictyol on anti-inflammatory markers were determined in mice fed a high-fat diet and compared to negative control, untreated mice that were fed either a standard- or high-fat-diet. Eriocitrin and eriodictyol effects were also compared against ibuprofen- and hesperidin-treated, high-fat-diet-fed mice. The effects of these various treatments on the cytokines IL-6, IL-10, MCP-1, and TNF-alpha are shown below.

IL-6 = IL-6 level in mice fed a high-fat diet; type: in vivo; conditions: for IL-6: high fat diet mice, mean ± standard deviation
Method: as §1

NF-kB = assay: NF-kB-luciferase assay system in C2C12 cell line; type: cell-based; conditions: for Compare quercetin (EC50 NF-kB): NF-kB inhibitory activity relative to quercetin
Method: Activity of the complex was measured using a C2C12 cell line with a NF-kB-luciferase assay system (Affymetrix, Santa Clara, Calif.), and compared to a number of flavonoid controls.

TNF-alpha = TNF-alpha level in mice fed a high-fat diet; type: in vivo; conditions: mean ± standard deviation
Method: as §1

IL-10 = IL-10 level in mice fed a high-fat diet; type: in vivo; conditions: mean ± standard deviation
Method: as §1

[3] = high-fat-diet-fed mice, in words
[4] = Mus musculus, C2C12, Table 5 summary, unit inferred, read-out: EC50 NF-kB
[5] = Mus musculus, NF-kB inhibition, C2C12 cell line, NF-kB-luciferase, read-out: EC50

| SMILES | EC50 (NF-kB; [4]) | EC50 (NF-kB; [5]) | Compare quercetin (EC50 NF-kB) (NF-kB) | ORAC-FN [1] | Compare quercetin (ORAC-FN) [1] | MCP-1 (MCP-1) | IL-6 (IL-6) | TNF-alpha (TNF-alpha) | IL-10 (IL-10) | also measured |
| --- | --- | --- | --- | --- | --- | --- | --- | --- | --- | --- |
| C[C@@H]1O[C@@H](OC[C@H]2O[C@@H](Oc3cc(O)c4c(c3)O[C@H](c3ccc(O)c(O)c3)CC4=O)[C@H](O)[C@@H](O)[C@@H]2O)[C@H](O)[C@H](O)[C@H]1O [Eriocitrin, eriodictyol 7-O-B-rutinoside] | 71.4 µg/mL (≈ 120 µM) | 71.4 µg/mL (≈ 120 µM) | 0.35 | 31355 | 0.475 | 19.3 ± 11.1^a | 3.1 ± 1.6^a | 2.4 ± 0.6 | 4.0 ± 2.2 | HDL levels [2]: increased; LDL levels [2]: reduced; glucose levels [2]: reduced; hs-CRP levels [2]: reduced; insulin levels [2]: reduced; total cholesterol levels [2]: reduced; MCP-1 levels in comparison to the negative controls (MCP-1; [3]): significantly reduced; IL-6 levels in comparison to the negative controls (IL-6; [3]): significantly reduced |
| COc1ccc([C@@H]2CC(=O)c3c(O)cc(O[C@@H]4O[C@H](CO[C@@H]5O[C@@H](C)[C@H](O)[C@@H](O)[C@H]5O)[C@@H](O)[C@H](O)[C@H]4O)cc3O2)cc1O [Hesperidin 90, Hesperidin] |  |  | 0.09 | 6067 | 0.092 |  |  |  |  | EC50 (NF-kB; NF-kB inhibition, C2C12 cell line, NF-kB-luciferase): 275.70 µg/mL (≈ 452 µM); EC50 NF-kB (NF-kB; Table 5 summary, unit not given, in µg/mL): 275.70 |
| CC(C)Cc1ccc(C(C)C(=O)O)cc1 (stereo not drawn) [Ibuprofen] |  |  |  |  |  | 43.4 ± 31.5^ab | 21.9 ± 18.1^a | 1.2 ± 2.4 | 6.0 ± 4.5 |  |
| COc1ccc([C@@H]2CC(=O)c3c(O)cc(O)cc3O2)cc1O [Hesperitin 95, Hesperitin] | 54.2 µg/mL (≈ 179 µM) | 54.2 µg/mL (≈ 179 µM) | 0.46 | 77875 | 1.180 |  |  |  |  |  |
| COc1ccc([C@@H]2CC(=O)c3c(O)cc(O[C@@H]4O[C@H](CO[C@@H]5O[C@@H](C)[C@H](O)[C@@H](O)[C@H]5O)[C@@H](O)[C@H](O)[C@H]4O)cc3O2)cc1O [Hesperidin] |  |  |  |  |  | 27.6 ± 9.0^a | 5.9 ± 4.6^a | 2.7 ± 0.3 | 5.3 ± 2.4 |  |
| COc1ccc(-c2cc(=O)c3c(O)cc(O[C@@H]4O[C@H](CO[C@@H]5O[C@@H](C)[C@H](O)[C@@H](O)[C@H]5O)[C@@H](O)[C@H](O)[C@H]4O)cc3o2)cc1O [Diosmin] | 349 µg/mL (≈ 573 µM) | 349 µg/mL (≈ 573 µM) | 0.07 | 373 | 0.006 |  |  |  |  |  |

Now from value to compound, other results behind:

| EC50 (NF-kB; [4]) | EC50 (NF-kB; [5]) | Compare quercetin (EC50 NF-kB) (NF-kB) | SMILES | ORAC-FN [1] | Compare quercetin (ORAC-FN) [1] | MCP-1 (MCP-1) | IL-6 (IL-6) | TNF-alpha (TNF-alpha) | IL-10 (IL-10) | also measured |
| --- | --- | --- | --- | --- | --- | --- | --- | --- | --- | --- |
|  | 31.5 µg/mL (≈ 104 µM) |  | O=c1c(O)c(-c2ccc(O)c(O)c2)oc2cc(O)cc(O)c12 [Quercetin•2H2O] |  |  |  |  |  |  |  |
| 32 µg/mL (≈ 118 µM) | 32 µg/mL (≈ 118 µM) | 0.78 | O=C1C[C@@H](c2ccc(O)cc2)Oc2cc(O)cc(O)c21 [Naringenin] | 59454 | 0.901 |  |  |  |  |  |
| 381 µg/mL (≈ 656 µM) | 381 µg/mL (≈ 656 µM) | 0.07 | C[C@@H]1O[C@@H](O[C@H]2[C@H](Oc3cc(O)c4c(c3)O[C@H](c3ccc(O)cc3)CC4=O)O[C@H](CO)[C@@H](O)[C@@H]2O)[C@H](O)[C@H](O)[C@H]1O [Naringin] | 22389 | 0.339 |  |  |  |  |  |
